From patent US20070173461A1, “Glycoside prodrug of 5-aminosalicylic acid” (Nippon Shinyaku Co., Ltd., priority 2004, published 2007)

Columns and labels:
[1] = Measurement of plasma concentration of 5-ASA (HPLC) after administration to rats; format: in vivo, rat; details: for Plasma concentration of 5-ASA after oral administration (in words, FIG. 1): rats, p.o., 50 mg/kg as 5-ASA
Method: To SD male rats at 7 weeks of age, 5-ASA was intravenously administered as a test drug, and the compound [1], the compound [2], the compound [3] or Pentasa ™ was orally administered at a dose of 50 mg/kg as5-ASA. The plasma concentration of 5-ASA was measured by high performance liquid chromatography (HPLC). As for Pentasa (registered trademark), granules obtained by pulverizing Pentasa (registered trademark) tablet were used.

[2] = Amount of 5-ASA in cecal, proximal colonic, distal colonic and rectal contents after oral administration; format: in vivo, rat; details: rats, p.o., 50 mg/kg as 5-ASA; compared with Pentasa and 5-ASA; FIGS. 2-5
Method: To SD male rats at 7 weeks of age, the compound [1], Pentasa ™ and 5-ASA were orally administered at a dose of 50 mg/kg as 5-ASA, and the contents in the cecum, the proximal colon, the distal colon and the rectum were homogenated and centrifuged. Then, the amount of 5-ASA in the respective sites of the large intestine was measured by high performance liquid chromatography (HPLC). As for Pentasa ™, granules obtained by pulverizing Pentasa ™ tablet were used.

TNBS-induced colitis = assay: Trinitrobenzenesulfonic acid (TNBS)-induced colitis in rats; format: in vivo, rat; details: 3 days after TNBS, female SD rats
Method: To a female SD rat fasted for 24 hours, an aqueous solution of TNBS/50% ethanol (30 mg/0.25 ml/rat) was administered in the colon at 8 cm from the anus using a probe for oral administration under pentobarbital anesthesia to induce colitis. At 3 days after the administration of TNBS, the colon was excised, and the wet weight of the colon of 8 cm long from the anus was weighed. The degree of colitis onset was scored in accordance with the method of Wallace et al. (Gastroenterology 96, 29-36 (1989)). As the test compounds, Pentasa ™ at doses of 30 mg/kg and 100 mg/kg and compound [1] at doses of 61.8 mg/kg and 205.9 mg/kg (corresponding to 30 mg/kg and 100 mg/kg in terms of 5-ASA) were orally administered twice a day (on the day of TNBS administration, once at 4 hours before TNBS administration). Pentasa ™ was administered as granules obtained by pulversing Pentasa ™ tablet.

[3] = Concentration of 5-ASA in colonic tissue and rectal tissue after oral administration; format: in vivo, rat; details: rats, p.o., 50 mg/kg as 5-ASA; FIGS. 6 and 7
Method: Further, the compound [2] and Pentasa ™ were orally administered at a dose of 50 mg/kg as 5-ASA, and the colon and the rectum were homogenated and centrifuged. Then, the concentrations of 5-ASA in the colonic tissue and the rectal tissue were measured by high performance liquid chromatography (HPLC). As for Pentasa ™, granules obtained by pulverizing Pentasa ™ tablet were used.

[4] = rat, in vivo; cited from earlier work

SMILES: Nc1ccc(O)c(C(=O)O)c1 [Compound 5-ASA, 5-Aminosalicylic acid]
- AUC ([1]; rat, iv, plasma 5-ASA, SD male rats, i.v., 1 mg/kg, read-out: Area under the curve of concentration (AUC)): 1420 ng·h/mL

SMILES: Nc1ccc(O[C@@H]2O[C@H](CO)[C@H](O)[C@H](O)[C@H]2O)c(C(=O)O)c1 [Compound [1], 5-amino-2-(β-D-galactopyranosyloxy)benzoic acid]
- Amount of 5-ASA in the respective sites of the large intestine (cecum, proximal colon, distal colon, rectum contents) [2]: highest value
- Damage score (TNBS-induced colitis; 61.8 mg/kg (corresponding to 30 mg/kg as 5-ASA) p.o. twice a day): significantly reduced
- Increase of the wet weight of the colon (TNBS-induced colitis; 205.9 mg/kg (corresponding to 100 mg/kg as 5-ASA) p.o. twice a day): inhibited the increase of the wet weight of the colon significantly
- Plasma concentration of 5-ASA after oral administration (in words, FIG. 1) [1]: remained low as compared with those of Pentasa

SMILES: Nc1ccc(O[C@H]2O[C@H](CO)[C@H](O)[C@H](O)[C@H]2O)c(C(=O)O)c1 [[2], 5-amino-2-(α-D-galactopyranosyloxy)benzoic acid]
- Concentrations of 5-ASA in the colonic tissue and the rectal tissue [3]: higher as compared with Pentasa
- Plasma concentration of 5-ASA after oral administration (in words, FIG. 1) [1]: remained low as compared with those of Pentasa

SMILES: Nc1ccc(O[C@@H]2O[C@H](CO)[C@@H](O)[C@H](O)[C@H]2O)c(C(=O)O)c1 [[3], 5-amino-2-(β-D-glucopyranosyloxy)benzoic acid]
- Plasma concentration of 5-ASA after oral administration (in words, FIG. 1) [1]: remained low as compared with those of Pentasa

SMILES: C[C@@H]1C[C@H]2[C@@H]3CCC4=CC(=O)C=C[C@]4(C)[C@@]3(F)[C@@H](O)C[C@]2(C)[C@@]1(O)C(=O)COC1O[C@H](CO)[C@@H](O)[C@H](O)[C@H]1O (stereo partly drawn) [glucose derivative of dexamethasone]
- Fraction delivered to the cecum [4]: 60%
